Data published in US9586914B2, “Modulators of C3a receptors” (THE UNIVERSITY OF QUEENSLAND, priority 2011, dated 2017).
Read-outs that look alike come from different tables or passages of the source.

Assays:
C3a receptor (C3aR) = molecular target: T1, C3a receptor (C3aR) (Homo sapiens, UniProt Q16581); assay: Competitive binding with [^125I]-C3a in HMDM; conditions: for remaining activity at 20 µM: 1 h, read-out: %[^125I]-C3a binding
T1 construct: peripheral blood mononuclear cells were isolated from buffy coat (obtained from Australian Red Cross Blood Service, Kelvin Grove); endogenous in cells; host or cells: primary human monocyte-derived macrophages (HMDM) differentiated from CD14+ monocytes of donor buffy coat
T1 sequence (Q16581 1-482): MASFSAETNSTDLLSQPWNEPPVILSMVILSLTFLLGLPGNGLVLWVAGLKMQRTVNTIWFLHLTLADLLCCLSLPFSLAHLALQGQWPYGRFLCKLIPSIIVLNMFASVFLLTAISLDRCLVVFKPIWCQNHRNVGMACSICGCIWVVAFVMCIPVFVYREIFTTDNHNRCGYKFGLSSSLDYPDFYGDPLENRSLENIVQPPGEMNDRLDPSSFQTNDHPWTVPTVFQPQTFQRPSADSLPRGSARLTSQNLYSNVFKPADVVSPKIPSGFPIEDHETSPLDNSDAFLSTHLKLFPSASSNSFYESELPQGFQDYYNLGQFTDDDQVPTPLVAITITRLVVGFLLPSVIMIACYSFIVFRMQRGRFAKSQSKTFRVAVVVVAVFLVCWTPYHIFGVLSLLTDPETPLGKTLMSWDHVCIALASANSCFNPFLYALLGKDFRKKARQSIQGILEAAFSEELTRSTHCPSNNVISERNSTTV
Summary of the method: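 IC50 values are geometric means, with −log IC50 computed per experiment and given as arithmetic mean ± SE. Cells were CD14+ monocytes from buffy-coat PBMC, differentiated to macrophages and used on day 7. Unbound label was removed by GF/B filtration with 3 cold washes in 50 mM Tris-HCl pH 7.4.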

C3aR [1] = molecular target: T2, C3aR (Homo sapiens, UniProt Q16581); assay: Calcium mobilization assay in HMDM (agonist/antagonist activity); assay type: cell-based; conditions: for Emax at 10 µM: read-out: % agonist; for IC50: read-out: Antagonist Activity Ca^2+ IC50
T2 construct: peripheral blood mononuclear cells were isolated from buffy coat (obtained from Australian Red Cross Blood Service, Kelvin Grove); endogenous in cells; host or cells: primary human monocyte-derived macrophages (HMDM) differentiated from CD14+ monocytes of donor buffy coat
T2 sequence (Q16581 1-482): T1 sequence (Q16581 1-482)
Summary of the method: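 Human monocyte-derived macrophages, 5×10^4 cells/well, loaded 1 h at 37 °C with 4 μM Fluo-3 in HBSS/HEPES/probenecid buffer, pH 7.4. Agonist mode: calcium release read 300 s; antagonist mode: 900 s compound preincubation then agonist, read 300 s (ex 485/em 520 nm); compared with hC3a.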

C3aR [2] = molecular target: T2, C3aR; assay: Desensitization experiments (Ca^2+ efflux after hC3a desensitization); assay type: cell-based; conditions: hC3a 3 μM first; second addition of 1 μM compound; HMDM
Protocol: Desensitization experiments were used to measure the selectivity of various ligands for C3aR, since this can help to clarify whether the non-peptidic ligands bind selectively to C3aR over other GPCRs that signal through intracellular calcium release.
The hC3a (3 μM) was administered to human monocyte derived macrophage cells, which produces an efflux of intracellular Ca^2+ that dissipates after 4-5 mins (FIGS. 4A and 4B). A second addition of 3 μM hC3a after 5 mins has no effect, due to desensitization of the receptor through either receptor (C3a receptor) phosphorylation or receptor internalization from the cell surface.

[3] = Table 6, competitive binding with [^125I]-C3a, HMDM
[4] = Table 6, competitive binding with [^125I]-C3a, HMDM, read-out: IC50 (converted)
[5] = Table 9, Ca^2+ mobilization, HMDM
[6] = Table 9, Ca^2+ mobilization, HMDM, read-out: EC50
[7] = quoted in text of Example 98, read-out: EC50
[8] = Table 6, competitive binding with [^125I]-C3a, HMDM, read-out: pIC50 ± SEM (converted)
[9] = Table 11, [^125I]-C3a, HMDM, read-out: Receptor Binding Affinity IC50
[10] = Table 11, [^125I]-C3a, HMDM, read-out: Receptor Binding Affinity pIC50 ± SE (converted)
[11] = Table 11, Ca^2+ mobilisation, HMDM, read-out: Apparent Antagonist Activity EC50
[12] = Table 9, Ca^2+ mobilization, HMDM, read-out: pEC50 ± SEM (converted)
[13] = Table 8, HMDM, read-out: Receptor Binding Affinity ^125I IC50

| SMILES | pIC50 ± SEM (C3a receptor (C3aR); [3]) | IC50 (C3a receptor (C3aR); [4]) [nM] | pEC50 ± SEM (C3aR [1]; [5]) | EC50 (C3aR [1]; [6]) [nM] | Ca^2+ efflux on addition after first desensitization with hC3a (selectivity for C3aR over other GPCRs) (C3aR [2]) | other results |
| --- | --- | --- | --- | --- | --- | --- |
| CC[C@H](C)[C@H](NC(=O)c1ccccc1Oc1ccccc1)c1nc(C(=O)N[C@@H](CCCNC(=N)N)C(=O)O)co1 [Compound 18, 2-phenoxy benzoic acid-isoleucine-oxazole-arginine-OH] | 7.26 ± 0.09 | 55 | 7.26 ± 0.08 | 54 | caused a second efflux of intracellular Ca^2+ |  |
| CC[C@H](C)[C@H](NC(=O)OC(C)(C)C)c1nc(C(=O)N[C@@H](CCCNC(=N)N)C(=O)O)co1 [Compound 2] | 7.53 ± 0.10 | 30 | 7.57 ± 0.11 |  | did not produce calcium efflux | EC50 (C3aR [1]; [7]): 27 nM |
| CC[C@H](C)[C@H](NC(=O)OC(C)(C)C)c1nc(C(=O)N[C@@H](CCCNC(=N)N)C(=O)O)c(C)o1 [Compound 25, Boc-isoleucine-5-methyl-oxazole-arginine-OH] |  |  |  | 45 | caused a second efflux of intracellular Ca^2+ | IC50 (C3a receptor (C3aR); [8]): 13.8 nM; IC50 (C3a receptor (C3aR); [9]): 15 nM; IC50 (C3a receptor (C3aR); [10]): 13.8 nM; EC50 (C3aR [1]; [11]): 45 nM; EC50 (C3aR [1]; Table 11, Ca^2+ mobilisation, HMDM, read-out: Apparent Antagonist Activity pEC50 ± SE (converted)): 39.8 nM |
| CC[C@H](C)[C@H](NC(=O)c1nccc2ccccc12)c1nc(C(=O)N[C@@H](CCCNC(=N)N)C(=O)O)co1 [Compound 10, Isoquinoline-1-Isoleucine-Oxazole-Arginine-OH] |  | 123 |  |  | did not produce calcium efflux | EC50 (C3aR [1]; [12]): 40.7 nM |
| Cc1[nH]c([C@H](CC(C)C)NC(=O)c2c[nH]c3ccccc23)nc1C(=O)N[C@@H](CCCNC(=N)N)C(=O)O [Compound 79, 3-Indole carboxylic acid-Leucine-5-methyl-imidazole-Arginine-OH] |  | 12 |  | 15 |  |  |
| COc1ccccc1CC(=O)N[C@@H](CC(C)C)c1nc(C(=O)N[C@@H](CCCNC(=N)N)C(=O)O)c(C)o1 [Compound 37, 2-Methoxy-phenylacetic acid-Leucine-5-Methyl-Oxazole-Arginine] |  |  |  |  |  | remaining activity at 20 µM (C3a receptor (C3aR)): 43%; Emax at 10 µM (C3aR [1]): 81% |
| Cc1oc([C@H](CC(C)C)NC(=O)c2ccccn2)nc1C(=O)N[C@@H](CCCNC(=N)N)C(=O)O [Compound 29, Picolinic acid-Leucine-5-Methyl-Oxazole-Arginine] |  |  |  |  |  | remaining activity at 20 µM (C3a receptor (C3aR)): 31%; Emax at 10 µM (C3aR [1]): 77% |
| Cc1nc(C(c2ccccc2)c2ccccc2)n(C)c1C(=O)N[C@@H](CCCNC(=N)N)C(=O)O [Compound 98, 2-Benzhydryl-1,4-Dimethyl imidazole-5-carboxyl-Arginine] |  | 31 |  | 40 |  |  |
| CC(C)C[C@H](NC(=O)OC(C)(C)C)c1nc(C(=O)NC(CCCNC(=N)N)C(=O)O)co1 (stereo partly drawn) [Compound 1, Boc-leucine oxazole-arginine-OH] |  | 20 |  |  | did not produce calcium efflux | IC50 (C3a receptor (C3aR); [8]): 19.5 nM; IC50 (C3a receptor (C3aR); [9]): 20 nM; IC50 (C3a receptor (C3aR); [10]): 19.5 nM; EC50 (C3aR [1]; [12]): 19.1 nM; EC50 (C3aR [1]; [11]): 19 nM; EC50 (C3aR [1]; [7]): 19 nM |
| CC[C@H](C)[C@H](NC(=O)Cc1c[nH]c2ccccc12)c1nc(C(=O)N[C@@H](CCCNC(=N)N)C(=O)O)co1 [Compound 9, 2-(1H-indol-3-yl)acetic acid-Isoleucine-Oxazole-Arginine-OH] | 6.82 ± 0.10 | 152 | 7.14 ± 0.19 | 73 |  |  |
| COc1ccc(CC(=O)N[C@@H](CC(C)C)c2nc(C(=O)N[C@@H](CCCNC(=N)N)C(=O)O)c(C)o2)cc1OC [Compound 43, 3,4-Dimethoxy-phenyl acetic acid-Leucine-5-Methyl-Oxazole-Arginine] |  |  |  |  |  | remaining activity at 20 µM (C3a receptor (C3aR)): 65%; Emax at 10 µM (C3aR [1]): 67% |
| N=C(N)NCCC[C@H](NC(=O)c1ccc(C(c2ccccc2)c2ccccc2)s1)C(=O)O [Compound 60, 5-Diphenylmethyl-thiophene-2-carboxyl-Arg-OH] |  |  |  |  |  | IC50 (C3a receptor (C3aR); [13]): 140 nM; IC50 (C3a receptor (C3aR); Table 14, binding affinity for C3aR on HMDM, read-out: -Log IC50 (converted)): 63.1 nM; EC50 (C3aR [1]; Table 10, HMDM, read-out: Agonist Activity EC50): > 100000 nM; IC50 (C3aR [1]; Table 10, HMDM): 70 nM |
| CC[C@H](C)[C@H](NC(=O)c1cccc(OC)c1OC)c1nc(C(=O)N[C@@H](CCCNC(=N)N)C(=O)O)co1 [Compound 22, 2,3-dimethoxybenzoic acid-isoleucine-oxazole-arginine-OH] | 6.15 ± 0.14 | 712 | ∞ |  |  | EC50 (nM) (C3aR [1]; [5]): ∞ |
| CC[C@H](C)[C@H](NC(=O)CCC(=O)c1ccc(-c2ccccc2)cc1)c1nc(C(=O)N[C@@H](CCCNC(=N)N)C(=O)O)co1 [Compound 16, 4-(biphenyl-4-yl)-4-oxobutanoic acid-Isoleucine-Oxazole-Arginine-OH] | 6.81 ± 0.07 | 155 | 8.12 ± 0.21 |  | did not produce calcium efflux | EC50 (C3aR [1]; [7]): 8 nM |
| Cc1oc([C@H](CC(C)C)NC(=O)NCc2ccccc2)nc1C(=O)N[C@@H](CCCNC(=N)N)C(=O)O [Compound 46, Benzylisocyanate-Leucine-5-Methyl-Oxazole-Arginine] |  |  |  |  |  | remaining activity at 20 µM (C3a receptor (C3aR)): 61%; Emax at 10 µM (C3aR [1]): 50% |
| N=C(N)NCCC[C@H](NC(=O)c1nc(C(c2ccccc2)c2ccccc2)no1)C(=O)O [Compound 67, 3-Diphenylmethyl-1-oxa-2,4-diazole-5-carboxyl-Arginine-OH] |  |  |  |  |  | IC50 (C3a receptor (C3aR); [13]): 11 nM; -Log IC50 (C3a receptor (C3aR); Table 14, binding affinity for C3aR on HMDM): 7.9; IC50 (C3aR [1]; Table 10, HMDM): 1300 nM |
